Test results taken from PubChem BioAssay AID2060489 (Molecular Pharmacology Branch, DTP, NCI, 2025).
Values joined by “and” are separate entries in the source; they are usually repeats but may differ in a detail not shown here. Equal entries are not always repeated. Values belong to the compound of their own block, whether it stands above or below them.

Tested on: 922993-354-T-J3-PDC complex spheroids, viability
Test: Anticancer human tumor 922993-354-T-J3-PDC patient-derived endometrial carcinoma cell line growth inhibition [GQUAD]
Settings: for viability, T/C: stronger effect = lower value
Description: DNA G-quadruplex Stabilizer Agents in Combinations in Complex Spheroids
A high-throughput screen of multi-cell type tumor spheroids was designed to identify active combinations of DNA G-quadruplex stabilizer agents and targeted small molecules. Complex spheroids include a stromal component modeled by human endothelial cells (HUVEC) and fibroblasts modeled by human mesenchymal stem cells (MSCs). The concentration ranges selected for each drug and investigational agent were based upon clinically achievable concentrations if the clinical Cmax of the agent was known.
Compounds. The drugs and investigational agents: pidnarulex (CX-5461; NSC782164), APTO-253 (NSC789042), BRACO-19 (NSC847499), peposertib (NSC802822), ceralasertib (NSC780249), elimusertib (NSC800525), camonsertib (NSC841442), AZD-1390 (NSC803789), olaparib (NSC753686), talazoparib (NSC767125), ART-558 (NSC835418), sotorasib (NSC818433), MRTX-1133 (NSC836407), SN-38 (NSC673596), topotecan (NSC609699), etoposide (NSC141540), doxorubicin (NSC123127), gemcitabine (NSC613327), 5-fluorouracil (NSC19893), paclitaxel (NSC125973), vemurafenib (NSC761431), panobinostat (NSC761190), R-306465 (JNJ-16241199; NSC773264), adavosertib (NSC754352), TP-3654 (NSC805149), carboplatin (NSC241240), KSQ-4279 (NSC840948), and staurosporine (NSC755774) were obtained from the National Cancer Institute (NCI) Developmental Therapeutics Program Chemical Repository (34). The FDA-approved anticancer drug set is available from the NCI Developmental Therapeutics Program. […] The stock solutions were prepared in dimethyl sulfoxide (DMSO, Sigma-Aldrich, St. Louis, MO, cat. D2650) at 800-fold the tested concentration and stored at -70 degrees C prior to their use. All drugs and investigational agents were tested over a range starting from a high concentration at or near the clinical Cmax and decreasing in half-log increments. If the clinical Cmax for an agent had not been determined, the highest concentration tested was 10 microM.
2.3 Cell Culture. All cells were maintained in an incubator at 37 degrees C and 5% CO2 with 95% humidity. The PDC lines were cultured according to standard operating procedures established by the NCI PDMR. All PDCs were thawed and cultured in Matrigel-coated flasks prepared with a working solution of 1X Ham's F-12 nutrient mix, without supplementation (Invitrogen, cat. 11765054), 100 U/mL penicillin-streptomycin (Invitrogen, cat. 15140122), and 2.5% Matrigel (Corning Inc., cat. 354248) for the first three passages. The 857933-349-R-J2-PDC line was cultured in 6C/Colon 1B media, which includes advanced DMEM/F-12 (Thermo Fisher Scientific, cat. 12634028), 10 mM HEPES (Thermo Fisher Scientific, cat. 15630080), 1X GlutaMAX supplement (Thermo Fisher Scientific, cat. 35050061), 0.1 mg/mL primocin (InvivoGen, cat. ant-pm-2), 10% defined fetal bovine serum, heat inactivated (HyClone Laboratories Inc., cat. SH30070.03HI), 50% L-WRN conditioned media (ATCC, cat. CRL-3276), 1.25 mM N-Acetyl-L-cysteine (Sigma-Aldrich, cat. A9165), 10 mM nicotinamide (Sigma-Aldrich, cat. N0636), 1X B-27 supplement (Thermo Fisher Scientific, cat. 17504044), 1X N-2 supplement (Thermo Fisher Scientific, cat. 17502048), 10 microM Y-27632 dihydrochloride (Tocris Bioscience, cat. 1254), and 50 ng/mL human EGF recombinant protein (Thermo Fisher Scientific, cat. PHG0311). The 485176-168-R4-J1-PDC line was cultured in Panc media, which includes all 6C/Colon 1B media components plus 100 ng/mL human FGF-10 (Thermo Fisher Scientific, cat. 100-26), 500 nM SB-431542 (Selleckchem, cat. S1067), and gastrin (Tocris, cat. 3006).
[…]

[1] = curve of first compound, second compound 0.0316 µM
[2] = curve of first compound, second compound 0.1 µM
[3] = curve of first compound, second compound 0.316 µM
[4] = curve of first compound, second compound 1 µM
[5] = curve of first compound, second compound 3.16 µM
[6] = curve of first compound, second compound 10 µM
[7] = second compound 0.0316 µM, first compound 0.0316 µM
[8] = second compound 0.0316 µM, first compound 0.316 µM
[9] = second compound 0.1 µM, first compound 0.0316 µM
[10] = second compound 0.1 µM, first compound 0.316 µM
[11] = second compound 0.316 µM, first compound 0.0316 µM
[12] = second compound 0.316 µM, first compound 0.316 µM
[13] = second compound 1 µM, first compound 0.0316 µM
[14] = second compound 1 µM, first compound 0.316 µM
[15] = second compound 3.16 µM, first compound 0.0316 µM
[16] = second compound 3.16 µM, first compound 0.316 µM
[17] = second compound 10 µM, first compound 0.0316 µM
[18] = second compound 10 µM, first compound 0.316 µM
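Further: spheroids exposed to compounds for seven days.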
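Wherever viability, T/C is given: 100% = DMSO vehicle control viability.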

SMILES: COc1ccc([C@@H](O)c2cc(-c3ncnc4cc(N5CCOCC5)ccc34)c(F)cc2Cl)nn1 + Cc1[nH]c2ccc(F)cc2c1-c1nc2c3cccnc3c3ncccc3c2[nH]1
IC50 [1]: 9140 nM
IC50 [2]: > 10000 nM
IC50 [3]: 8510 nM
IC50 [4]: > 10000 nM
IC50 [5]: > 10000 nM
IC50 [6]: > 10000 nM
viability, T/C [7]: 107%
viability, T/C (second compound 0.0316 µM, first compound 0.1 µM): 112%
viability, T/C [8]: 92.9%
viability, T/C (second compound 0.0316 µM, first compound 1 µM): 90%
viability, T/C (second compound 0.0316 µM, first compound 3.16 µM): 95.8%
viability, T/C (second compound 0.0316 µM, first compound 10 µM): 45.7%
viability, T/C [9]: 123%
viability, T/C (second compound 0.1 µM, first compound 0.1 µM): 115%
viability, T/C [10]: 114%
viability, T/C (second compound 0.1 µM, first compound 1 µM): 94.9%
viability, T/C (second compound 0.1 µM, first compound 3.16 µM): 115%
viability, T/C (second compound 0.1 µM, first compound 10 µM): 58.1%
viability, T/C [11]: 106%
viability, T/C (second compound 0.316 µM, first compound 0.1 µM): 116%
viability, T/C [12]: 94%
viability, T/C (second compound 0.316 µM, first compound 1 µM): 100%
viability, T/C (second compound 0.316 µM, first compound 3.16 µM): 86.8%
viability, T/C (second compound 0.316 µM, first compound 10 µM): 43.4%
viability, T/C [13]: 114%
viability, T/C (second compound 1 µM, first compound 0.1 µM): 108%
viability, T/C [14]: 72.2%
viability, T/C (second compound 1 µM, first compound 1 µM): 88.6%
viability, T/C (second compound 1 µM, first compound 3.16 µM): 97.1%
viability, T/C (second compound 1 µM, first compound 10 µM): 68.2%
viability, T/C [15]: 101%
viability, T/C (second compound 3.16 µM, first compound 0.1 µM): 101%
viability, T/C [16]: 93.9%
viability, T/C (second compound 3.16 µM, first compound 1 µM): 103%
viability, T/C (second compound 3.16 µM, first compound 3.16 µM): 88.9%
viability, T/C (second compound 3.16 µM, first compound 10 µM): 66.1%
viability, T/C [17]: 84.6%
viability, T/C (second compound 10 µM, first compound 0.1 µM): 88.6%
viability, T/C [18]: 109%
viability, T/C (second compound 10 µM, first compound 1 µM): 90.8%
viability, T/C (second compound 10 µM, first compound 3.16 µM): 108%
viability, T/C (second compound 10 µM, first compound 10 µM): 61.6%

SMILES: CCc1c2c(nc3ccc(O)cc13)-c1cc3c(c(=O)n1C2)COC(=O)[C@]3(O)CC + CN(C)c1ccc(Nc2c3ccc(NC(=O)CCN4CCCC4)cc3nc3cc(NC(=O)CCN4CCCC4)ccc23)cc1
IC50 [1]: 6.5 nM
IC50 [2]: 6.99 nM
IC50 [3]: 6.11 nM
IC50 [4]: 6.51 nM
IC50 [5]: 6.83 nM
IC50 [6]: 8.98 nM
viability, T/C (second compound 0.0316 µM, first compound 0.000999 µM): 99.2%
viability, T/C (second compound 0.0316 µM, first compound 0.00316 µM): 78.4%
viability, T/C (second compound 0.0316 µM, first compound 0.00999 µM): 34.1%
viability, T/C [7]: 10.4%
viability, T/C (second compound 0.0316 µM, first compound 0.0999 µM): 10.1%
viability, T/C [8]: 20.1%
viability, T/C (second compound 0.1 µM, first compound 0.000999 µM): 96.4%
viability, T/C (second compound 0.1 µM, first compound 0.00316 µM): 94.1%
viability, T/C (second compound 0.1 µM, first compound 0.00999 µM): 30%
viability, T/C [9]: 7.58%
viability, T/C (second compound 0.1 µM, first compound 0.0999 µM): 12%
viability, T/C [10]: 16.8%
viability, T/C (second compound 0.316 µM, first compound 0.000999 µM): 90.6%
viability, T/C (second compound 0.316 µM, first compound 0.00316 µM): 74.3%
viability, T/C (second compound 0.316 µM, first compound 0.00999 µM): 32.5%
viability, T/C [11]: 9.44%
viability, T/C (second compound 0.316 µM, first compound 0.0999 µM): 12.3%
viability, T/C [12]: 13.8%
viability, T/C (second compound 1 µM, first compound 0.000999 µM): 96%
viability, T/C (second compound 1 µM, first compound 0.00316 µM): 77.5%
viability, T/C (second compound 1 µM, first compound 0.00999 µM): 34.4%
viability, T/C [13]: 12.8%
viability, T/C (second compound 1 µM, first compound 0.0999 µM): 11.8%
viability, T/C [14]: 17.7%
viability, T/C (second compound 3.16 µM, first compound 0.000999 µM): 96.7%
viability, T/C (second compound 3.16 µM, first compound 0.00316 µM): 79.8%
viability, T/C (second compound 3.16 µM, first compound 0.00999 µM): 36.3%
viability, T/C [15]: 11.4%
viability, T/C (second compound 3.16 µM, first compound 0.0999 µM): 12.9%
viability, T/C [16]: 20.6%
viability, T/C (second compound 10 µM, first compound 0.000999 µM): 111%
viability, T/C (second compound 10 µM, first compound 0.00316 µM): 89.1%
viability, T/C (second compound 10 µM, first compound 0.00999 µM): 49.3%
viability, T/C [17]: 14.4%
viability, T/C (second compound 10 µM, first compound 0.0999 µM): 17.4%
viability, T/C [18]: 23.3%

IC50 (curve of compound): 514 nM and 326 nM and 460 nM
SMILES: CC1COCCN1c1cc(C2(O)CC3CCC(C2)O3)c2cnn(-c3ccn[nH]3)c2n1 (stereo unspecified)
viability, T/C (compound 0.0316 µM): 93.2% and 97.1% and 107%
viability, T/C (compound 0.1 µM): 80.6% and 62.3% and 68.6%
viability, T/C (compound 0.316 µM): 54.2% and 56.9% and 63.5%
viability, T/C (compound 1 µM): 41.3% and 36% and 37.9%
viability, T/C (compound 3.16 µM): 26.8% and 19.8% and 23.5%
viability, T/C (compound 10 µM): 18.6% and 15.3% and 15.6%
